This is an account of results in patent US20080081039A1, “Inorganic Selenium For Treatment Of Cancer” (priority 2004, published 2008).

Where only a bound is given, the exact number is not on record here.

One series deals with Akt. The experiment in a line: Activation of Akt by different selenium compounds in PC-3 cells, immunoblot. Type of series: cell-based, human. The settings on record: 125 μM, 6 hours, serum starved PC-3 cells. From the text:
Signal intensities from the developed films were scanned and intensities of active Akt correlated to total Akt levels were plotted.
In general terms: A western blot detects proteins with antibodies after separation by electrophoresis.

For series [1] the following is noted: at certain doses; cited from earlier work.
In a further series the test system is Histone H2A.X. The conditions noted are these: 500 μM.
A further series has as its system β-tubulin. The experiment in a line: β-tubulin levels in treated PC-3 cell lysates. Format: cell-based, human.
Series [2] concerns human prostate cancer PC-3 cells. The experiment in a line: Cell toxicity by Trypan Blue Exclusion, selenate versus selenite. The settings on record: 5 μM or 50 μM, 24 to 96 hours. Here is the method: 5×10^3 human prostate cancer PC-3 cells were seeded in a 24-well dish and 8 hours later were treated with either 5 μM or 50 μM of selenate or selenite. The dose range of 5 μM or 50 μM is equivalent to 0.1 mg/kg to 1.25 mg/kg. Cells were harvested at 24, 48, 72 and 96 hours following the addition of selenate or selenite and the percentage of viable cells as assessed by Trypan Blue staining was determined.
All cells in the tissue culture wells were then harvested sequentially at periods between 24 and 96 hours following addition of the treatments. The percentage of viable cells were then determined using the Trypan Blue exclusion assay.

In series [3] the test system is DU145 prostate cancer cells. The settings on record: cited from earlier work.
Series [4] deals with cell cycle regulatory proteins (cyclin D1, cdk4, cdk6, p27KIP1, p21CIP1). The experiment in a line: Immunoblot of cell cycle regulatory proteins in PC-3 cells. Type of series: cell-based, human. The conditions noted are these: 0.5 mM, compared to control (0 hours), FIG. 3C. From the text:
The following antibodies were obtained from Cell Signaling Technology (Beverly, Mass., USA) unless otherwise stated: anti-p27^KIP1 (bd Pharmingen), anti-p21^CIP1 , ANTI-CYCLIN d1, ANTI-CYCLIN d3, ANTI-CDK4, ANTI-CDK6, ANTI-PHOSPHO rb (Ser807/811), anti-RB, anti-phospho Akt (Ser473), anti-phospho Akt (Thre308), anti-Akt, anti-phospho PDK1 (Ser241), anti-phospho PDK1 (Tyr373/376), anti-phospho GSK-3β, anti-phospho mTOR (Ser2448), anti-mTOR, anti-βIII tubulin (Promega).
To determine the effect of selenate on the phosphorylation of proteins involved in the PI3K/Akt signaling cascade, 5×10^5 PC-3 cells were allowed to attach for 10 hours. […] Cells were lysed in ELB (250 mM NaCl, 50 mM HEPES pH 7.0, 5 mM EDTA, 0.5 mM DTT, 0.2% TX100, 20 mM sodium fluoride, 2 mM sodium pervanadate, Complete Protease Inhibitor Cocktail (Roche)). Lysates were centrifuged for 15 minutes at 4° C. Protein concentration was determined using the BCA system (Sigma) and equal amounts of protein were loaded into each lane of a SDS-polyacrylamide gel. The proteins were transferred onto PVDF (Millipore) membranes and detected with anti-mouse or anti-rabbit secondary antibodies couples to horseradish peroxidase (HRP) and chemiluminescence using the SuperSignal West Dura (Pierce). Membranes were stripped using the Restore Western Blot Stripping Buffer (Pierce).

For a further series, the system named is PC-3 cells. The experiment in a line: MTT growth assay. The conditions noted are these: 0.25 and 0.5 mM, 72 hour. Type of series: cell-based, human. As for the experimental part: MTT Growth Assays involved plating 1×10^3 PC-3 cells per well in a 96 well plate and allowing the cells to attach overnight. […] The controls for this experiment received an equal volume of LY294002 diluent (DMSO). MTT growth assays were then performed according to the manufacturer's protocol (Sigma).

In the next series the test system is GFP-FKHR fusion protein. The experiment in a line: GFP-FKHR cellular localization in transfected PC-3 cells. Format: cell-based, human. The conditions noted are these: LY294002 50 μM 1 hour; sodium selenate or selenomethionine 0.5 mM 3 hours. Here is the method: The day before transfection, 5×10^5 PC-3 cells were seeded in 24-well dishes and transiently transfected with 0.8 μg of pcDNA3-GFP-FKHRwt construct (kind gift Dr Bill Sellers, Dana-Farber Institute, Boston) using Lipofectamine 2000 (Invitrogen). Cells were permeabilized in 0.2% Triton X-100 and the nuclear contents stained with DAPI. Coverslips were mounted with fluorescent mounting medium (DAKO). The cellular distribution of green fluorescence was determined in dual fluorescent cells using a Leica epifluorescent microscope.
Reintroducing PTEN function in such cells induces translocation of FKHR to the nucleus eventually causing G1 arrest in PTEN-null cells (Nakamura et al 2000, supra).

Protocol for Histone H2A.X: 5×10^5 PC-3 cells were plated in a 6 well dish and 24 hours later cells were treated with paclitaxel at 1 μg/mL or 10 μg/mL or selenate 500 μM (19 mg/kg) or selenite 500 μM (18 mg/kg) for the indicated times. Cells were then washed in PBS, lysed in ELB lysis buffer and whole cell lysates run on a SDS-PAGE gel and blotted and probed with the indicated antibodies. Phosphorylation of Histone H2AX occurs within minutes of DNA damage, typically via DNA double or single strand breaks and is a very sensitive readout of DNA damage.
To ascertain the differences between selenate, selenite and the taxane, paclitaxel in inducing DNA damage PC-3 cells were treated with these compounds for increasing time periods then lysed. The protein extracts were probed for phosphorylation of Histone H2A.X using a phosphorylation specific antibody.

On to `N[C@@H](C[SeH])C(=O)O` [Selenocysteine], for which the “activation of Akt (phosphorylated Akt relative to total Akt)” value with Akt is on record as “induce activation of Akt above control (con) levels”.

For `O=[Se](O)O` [sodium selenite], in [1], the toxicity to cells entry is “toxic to cells”. In the series on Histone H2A.X, the “time of treatment to DNA damage” value is at most 30 min. In addition, in the series on β-tubulin (100 μM, 250 μM or 500 μM, 16 hours), the cellular tubulin degradation result is “marked degradation”. Also, in the series with β-tubulin (500 μM, increasing time periods), the β-tubulin levels entry was “concomitant decrease in β-tubulin levels”. Also, the “cytotoxic effect (Trypan Blue exclusion)” value in [2] is listed as “cytotoxic effect”.

`C[Se](=O)O` [Methylseleninic acid]: the “apoptosis and phosphorylation of Akt in DU-145 cells” value in series [3] (3 μM) is “not associated with apoptosis or with decreased phosphorylation of Akt”. Moreover, in [3], the “G1 arrest and apoptosis markers in DU145 cells” value is “induces G1 arrest, as well as DNA fragmentation and caspase mediated cleavage of PARP”. For the same molecule, the “G1 arrest of DU-145 cells” value in series [3] (doses as low as 3 μM) is “induced G1 arrest”. Besides, in [3] (higher doses of 5 μM), the “Akt activation in DU-145 cells” value is given as “dose-dependent decline in Akt activation” and the “apoptosis in DU-145 cells” value is recorded as “initiation of caspase-mediated apoptosis”.

As for `O=[Se](O)O` [Selenous acid], the “activation of Akt (phosphorylated Akt relative to total Akt)” value in the series with Akt is listed as “induce activation of Akt above control (con) levels”.

In the case of `O=[Se]=O` [selenium dioxide], in the series on Akt, the “activation of Akt (phosphorylated Akt relative to total Akt)” value was “induce activation of Akt above control (con) levels”.

Regarding `S=[Se]=S` [selenium sulfide], in the series with Akt, the “activation of Akt (phosphorylated Akt relative to total Akt)” value is listed as “induce activation of Akt above control (con) levels”.

With `C[Se]CC[C@H](N)C(=O)O` [selenomethionine, reference compound], in series [4], the “p27KIP1 total protein levels, inorganic versus organic selenium” value was “little effect”. Further, the “PC-3 cell proliferation (MTT proliferative index)” value in the series with PC-3 cells is “less effective in reducing cell proliferation”. Also, the “relocalization of GFP-FKHR from the cytoplasm to the nucleus” value in the series on GFP-FKHR fusion protein was “unable to induce relocalization”.
